# Experimental data from patent US6130232A, “Substituted piperidine derivatives as muscarinic M3 receptor antagonists” (Banyu Pharmaceutical Coaltd, priority 1995, dated 2000).
# Tests used:
# muscarinic M3 receptor = biological target: T1, muscarinic M3 receptor (Rattus norvegicus, UniProt P08483); test: Inhibition of M3 muscarinic receptor binding ([3H]-N-methylscopolamine, lacrimal gland membrane); details: for Ki: rat lacrimal gland membrane, 0.02 nM [3H]-N-methylscopolamine; for M1 / M3 / M2 / M3: ratio of binding Ki
# T1 construct: the membrane preparations of the lacrimal glands were used as the test specimens; from tissue; host or cells: rat lacrimal gland membranes (male SD rats)
# Procedure: (§1) Male SD strain rats weighing each 250 g-350 g [Japan Charles River K.K.] were sacrificed and their cerebral cortices, hearts and lacrimal glands were extirpated. The isolated organs were homogenized with Polytron (setting: 5) in an ice-cooled, 5-times diluted buffer solution (pH 7.4) containing 50 mM tris-hydrochloric acid, 5 mM magnesium chloride, 1 mM ethylenediamine-tetraacetic acid trisodium salt and 20% sucrose, followed by 15 minutes' centrifuge at 3,000×g and 4° C. After filtering the supernatant through gauze cloth, the filtrate was further subjected to an ultracentrifugation at 100,000×g at 4° C. for 45 minutes. The resultant precipitate was suspended in an ice-cooled buffer solution (pH 7.4, hereafter abbreviated as tris buffer) containing 50 mM tris-hydrochloric acid and 5 mM magnesium chloride. The suspension was subjected to an ultracentrifugation at 100,000×g at 4° C. for 45 minutes. The resultant precipitate was suspended in tris buffer at a concentration of 50 mg/ml and kept at -80° C. until the time of use. It was melted at the time of use in the binding inhibition tests.
# (§2) Namely, a cerebral cortex membrane preparation, 1 nM [^3 H]-telenzepine ([^3 H]-Telenzepine, 85 Ci/mmol, New England Nuclear) and a test compound were incubated in 0.5 ml of tris buffer at room temperature (about 20-25° C.) for 120 minutes. Into the incubated system, 0.5 ml of ice-cooled tris buffer was added and suction-filtered with a glass filter (Packard Unifilter Plate GF/C). The filter was washed 4 times each with 1 ml of ice-cooled tris buffer. After drying the filter at 50° C. for an hour, a scintillator (Microscinti O: Packard Instrument Co., Inc.) was added and the radioactivity of the [^3 H]-telenzepine which was adsorbed onto the filter was measured with a microplate scintillation counter (Top Count: Packard Instrument Co., Inc.). Non-specific binding of [^3 H]-telenzepine to the receptors was determined under addition of 10 μM pirenzepine.
# The test was conducted in the manner similar to above 2) M1 muscarinic receptor binding inhibition test, except that the membrane preparations of the lacrimal glands were used as the test specimens and 0.02 nM [^3 H]-N-methylscopolamine was used as the labelling ligand. Non-specific binding of [^3 H]-N-methylscopolamine to the receptor was determined under addition of 1 μM N-methylscopolamine.
# muscarinic M1 receptor = biological target: T2, muscarinic M1 receptor (Rattus norvegicus, UniProt P08482); test: Inhibition of M1 muscarinic receptor binding ([3H]-telenzepine, cerebral cortex membrane); details: 1 nM [3H]-telenzepine
# T2 construct: a cerebral cortex membrane preparation, 1 nM; from tissue; host or cells: rat cerebral cortex membranes (male SD rats)
# T2 sequence (P08482 1-460): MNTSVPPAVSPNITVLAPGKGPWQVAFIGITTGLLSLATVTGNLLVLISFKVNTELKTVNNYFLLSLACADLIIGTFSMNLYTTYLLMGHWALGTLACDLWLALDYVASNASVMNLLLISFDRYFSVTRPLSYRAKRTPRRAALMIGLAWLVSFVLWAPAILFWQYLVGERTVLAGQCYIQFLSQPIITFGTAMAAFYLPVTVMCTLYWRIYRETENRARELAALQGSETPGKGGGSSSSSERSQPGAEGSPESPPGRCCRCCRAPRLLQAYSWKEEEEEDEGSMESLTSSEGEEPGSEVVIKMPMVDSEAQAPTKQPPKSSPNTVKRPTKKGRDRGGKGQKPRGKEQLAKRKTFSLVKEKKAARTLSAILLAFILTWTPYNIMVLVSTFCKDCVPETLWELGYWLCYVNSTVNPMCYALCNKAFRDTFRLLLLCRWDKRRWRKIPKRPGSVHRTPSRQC
# Procedure: as §1, §2
# muscarinic M2 receptor = biological target: T3, muscarinic M2 receptor (Rattus norvegicus, UniProt P10980); test: Inhibition of M2 muscarinic receptor binding ([3H]-N-methylscopolamine, heart membrane); details: 0.2 nM [3H]-N-methylscopolamine
# T3 construct: the membrane preparations of the heart were used as the test specimens; from tissue; host or cells: rat heart membranes (male SD rats)
# T3 sequence (P10980 1-466): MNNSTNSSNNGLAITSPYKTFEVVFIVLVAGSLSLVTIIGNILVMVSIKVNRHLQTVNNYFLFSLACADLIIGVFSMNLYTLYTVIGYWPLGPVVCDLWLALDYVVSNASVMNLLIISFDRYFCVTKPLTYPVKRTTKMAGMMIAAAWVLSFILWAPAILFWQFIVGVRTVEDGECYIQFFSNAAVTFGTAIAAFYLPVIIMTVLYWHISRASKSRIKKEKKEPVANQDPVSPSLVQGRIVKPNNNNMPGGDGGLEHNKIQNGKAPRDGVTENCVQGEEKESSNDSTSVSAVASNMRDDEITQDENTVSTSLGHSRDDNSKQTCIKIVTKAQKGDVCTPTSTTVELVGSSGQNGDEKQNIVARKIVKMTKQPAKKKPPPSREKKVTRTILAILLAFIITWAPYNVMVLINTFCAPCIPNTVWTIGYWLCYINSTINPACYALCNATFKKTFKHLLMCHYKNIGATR
# Procedure: Hereinafter action of compounds of the present invention to inhibit binding to muscarinic receptors and their in vitro and in vivo antagonism to muscarinic receptors are described, to concretely indicate utility of the present invention. As the labelling ligand for M1 muscarinic receptor, [^3 H]-telenzepine was used and as that for M2 and M3 muscarinic receptors, [^3 H]-N-methyl-scopolamine was used, and dissociation constants (Ki) were calculated from concentration of each of the tested compounds to inhibit binding of the labelling ligand by 50% (IC50).
# as §1
# These tests were performed according to a modification of the method of Hargreaves et al. (Br. J. Pharmacol. 107: pp. 494-501, 1992). […] After drying the filter at 50° C. for an hour, a scintillator (Microscinti O: Packard Instrument Co., Inc.) was added and the radioactivity of the [^3 H]-telenzepine which was adsorbed onto the filter was measured with a microplate scintillation counter (Top Count: Packard Instrument Co., Inc.). Non-specific binding of [^3 H]-telenzepine to the receptors was determined under addition of 10 μM pirenzepine. […]
# The test was conducted in the manner similar to above 2) M1 muscarinic receptor binding inhibition test, except that the membrane preparations of the heart were used as the test specimens and 0.2 nM [^3 H]-N-methylscopolamine ([^3 H]-N-Methylscopolamine, 84 Ci/mmol, New England Nuclear) was used as the labelling ligand. Non-specific binding of [^3 H]-N-methylscopolamine to the receptors was determined under addition of 1 μM N-methylscopolamine.
# airway M3 receptor = biological target: T4, airway M3 receptor (Rattus norvegicus, UniProt P08483); test: Antagonism to airway M3 receptor in isolated rat trachea; details: agonist carbachol
# T4 construct: the trachea was isolated; from tissue; host or cells: isolated rat trachea (male SD rats)
# Procedure: Male SD strain rats (200-300 g) were sacrificed by exsanguination and the trachea was isolated. Ring segments (2 mm wide) were cut out from the trachea and cut transversely at the anterior cartilage part to make open ring preparations. Each preparation was suspended in a Magnus tube filled with 5 ml of Krebs-Henseleit solution (gassed with 95% O2 -5% CO2, at 37° C.) at an initial tension of 1.0 g and a resting tension of 0.6 g. The tension of the preparation was recorded isometrically. After being equilibrated for an hour, the preparation was made to contract twice by treatment with 10^-4 M carbachol, and the second contraction induced by carbachol was used as the reference contraction. After the preparation was washed with fresh solution to be recovered to the base line, a test compound was administered thereto (or no treatment was given). Ten minutes later, carbachol (10^-8 to 10^-3 M) was cumulatively administered in three-fold increased doses to obtain a dose-response curve. The dose-response curve was plotted by expressing responses as percentages based on the reference contraction of the preparation as 100%. The antagonistic potency (KB value) of the test compound was determined from the degree of shift of the dose-response curve obtained by treatment with the test compound.
# ileum M3 receptor = biological target: T5, ileum M3 receptor (Rattus norvegicus, UniProt P08483); test: Antagonism to intestinal tract M3 receptor in isolated rat ileum; details: agonist carbachol, read-out: KB ileus M3
# T5 construct: the ileum was isolated and formed into 2 cm-long preparations; from tissue; host or cells: isolated rat ileum (male SD rats)
# Procedure: Male SD strain rats (200-300 g) were sacrificed by exsanguination, and the ileum was isolated and formed into 2 cm-long preparations. […] Tension in the preparation was isotonically recorded. After an hour's equilibration, the preparation was contracted twice with 10^-6 M carbachol, the second contraction being recorded as the reference contraction. After the preparation was washed with fresh solution and recovered to the base line, a test compounds was administered thereto (or no treatment was given). Ten minutes later, carbachol (10^-8 to 10^-3 M) was cumulatively administered to the preparation from at a low concentration to three-fold increased dose to obtain a dose-response curve. The dose-response curve was plotted by expressing responses as percentages based on the reference contraction of the preparation which was set to be 100%.
# bladder M3 receptor = biological target: T6, bladder M3 receptor (Rattus norvegicus, UniProt P08483); test: Antagonism to bladder M3 receptor in isolated rat urinary bladder; details: agonist carbachol
# T6 construct: the urinary bladder was isolated; from tissue; host or cells: isolated rat urinary bladder (male SD rats)
# Procedure: Male SD strain rats (200-300 g) were sacrificed by exsanguination and the urinary bladder was isolated. The bladders were cut into four longitudinal unfold sections, to form about 10 mm-long preparations. Each preparation was suspended in a Magnus tube filled with 5 ml of Krebs-Henseleit solution (gassed with 95% O2 -5% CO2 at 32° C.) at an initial tension of 0.5 g. The tension in the preparation was isometrically recorded. After an hour's equilibration, the preparation was contracted twice with 10^-4 M carbachol, the second contraction being recorded as the reference contraction. After the preparation was washed with fresh solution and recovered to the base line, a test compound was administered thereto (or no treatment was given). Ten minutes later, carbachol (10^-8 to 10^-3 M) was cumulatively administered to the preparation from at a low concentration to three-fold increased dose to obtain a dose-response curve. The dose-response curve was plotted by expressing responses as percentages based on the reference contraction of the preparation which was set to be 100%. The antagonistic potency (KB value) of the test compound was determined from the degree of shift in the dose-response curve resulted from the treatment with the test compound.
# right atrium M2 receptor = biological target: T7, right atrium M2 receptor (Rattus norvegicus, UniProt P10980); test: Antagonism to M2 receptor in isolated rat right atrium; details: agonist carbachol
# T7 construct: the right atrium was isolated; from tissue; host or cells: isolated rat right atrium (male SD rats)
# T7 sequence (P10980 1-466): T3 sequence (P10980 1-466)
# Procedure: This test was conducted following the method of Wess, et al. [British Journal of Pharmacology, Vol. 102, pp. 246-250]. Male SD strain rats (weighing 200-300 g) were sacrificed by exsanguination and the right atrium was isolated. […] The heart rate was recorded with a heart rate counter. After the preparation was equilibrated for 30 minutes, carbachol (10^-9 to 10^-6 M) was cumulatively administered from a low concentration to three-fold increased doses. Thus, a decrease in heart rate was measured to obtain a control dose-response curve. After the preparation was washed with fresh solution to recover the heart rate, a test compound was administered thereto. Ten minutes later, carbachol was cumulatively administered again. Carbachol-induced responses were expressed as percentages based on the heart rate before administration of carbachol as 100%.
# [1] = test system: airway resistance increase; test: Airway resistance enhancement in rats (acetylcholine-induced); assay type: in vivo, rat; details: for ED50: iv, 5 min, rat, i.v., acetylcholine 50 μg/kg, read-out: airway constriction ID50; for activities in both airway constriction and bradycardia, in words: in vivo, Table 3, both tests
# Procedure: Eight- to eleven-weeks-old Sprague-Dawley strain rats (300-400 g) were anesthetized with urethane (750 mg/kg, i.p.) and α-chloralose (37.5 mg/kg, i.p.). The bronchus of each rat was intubated, and the right jugular vein was cannulated for drug administration. […] After stable airway resistance increase induced by intravenous administration of acetylcholine (50 μg/kg) was observed, a test compound was administered intravenously. After 5 minutes, once again the airway resistance increase was induced with acetylcholine. The inhibition ratio of the tested compound on the airway resistance increase before administration of the test compound was calculated, and the dose of the test compound which inhibited the airway resistance obtained before the drug administration by 50% was recorded as ID50 value.
# bradycardia = test: Rat bradycardia (acetylcholine-induced); assay type: in vivo; details: for ED50: iv, 5 min, rat, i.v., acetylcholine 10 μg/kg, read-out: bradycardia ID50; for selectivity of bronchodilation over bradycardiac response, in words: in vivo, Table 3
# Procedure: Eight- to eleven-weeks-old Sprague-Dawley strain rats (300-400 g) were anesthetized by intraperitoneal injection of urethane (750 mg/kg) and α-chloralose (37.5 mg/kg), and their right carotid artery, left juglar vein and airway of the rat were cannulated. […] After stable bradycardia induced by intravenous administration of acetylcholine (10 μg/kg) was observed, a test compound was intravenously administered. Five minutes later, bradycardia was induced once again with acetylcholine administration. The inhibition ratio to the bradyeardia obtained before the administration of the test compound was calculated, and the dose of the test compound which inhibited the bradycardia obtained before the drug administration by 50% was recorded as ID50 value.
# T1 sequence (P08483 whole entry): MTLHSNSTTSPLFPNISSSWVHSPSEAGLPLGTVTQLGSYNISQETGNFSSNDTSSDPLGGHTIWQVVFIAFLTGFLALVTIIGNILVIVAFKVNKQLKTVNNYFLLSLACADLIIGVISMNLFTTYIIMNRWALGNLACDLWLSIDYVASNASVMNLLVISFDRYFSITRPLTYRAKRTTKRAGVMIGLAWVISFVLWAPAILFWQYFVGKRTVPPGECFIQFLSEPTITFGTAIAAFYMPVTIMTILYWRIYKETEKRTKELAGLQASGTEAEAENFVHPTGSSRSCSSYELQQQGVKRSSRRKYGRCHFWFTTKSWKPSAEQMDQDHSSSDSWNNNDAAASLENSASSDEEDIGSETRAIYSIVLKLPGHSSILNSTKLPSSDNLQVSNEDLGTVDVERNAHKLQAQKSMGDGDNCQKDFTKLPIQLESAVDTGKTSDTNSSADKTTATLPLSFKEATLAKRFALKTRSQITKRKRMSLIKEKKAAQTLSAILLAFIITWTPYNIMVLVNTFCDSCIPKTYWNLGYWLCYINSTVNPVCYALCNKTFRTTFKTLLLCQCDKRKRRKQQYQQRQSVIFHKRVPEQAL
# T4 sequence (P08483 whole entry): as above
# T6 sequence (P08483 whole entry): as above
# T5 sequence (P08483 whole entry): as above
Compound,Ki (muscarinic M3 receptor),M1 / M3 (muscarinic M3 receptor),M2 / M3 (muscarinic M3 receptor),Ki (muscarinic M1 receptor),Ki (muscarinic M2 receptor),Kb (airway M3 receptor),Kb (ileum M3 receptor),Kb (bladder M3 receptor),Kb (right atrium M2 receptor),ED50 [1],ED50 (bradycardia),"activities in both airway constriction and bradycardia, in words [1]","selectivity of bronchodilation over bradycardiac response, in words (bradycardia)"
"O=C(NC1CCN(Cc2cc(Cl)ccn2)CC1)C(O)(c1ccccc1)C1CCCC1 (stereo not shown) [Example 11, N-[1-(4-chloro-2-pyridylmethyl)piperidin-4-yl]-2-cylopentyl-2-hydroxy-2-phenylacetamide]",8.8 nM,1.3,83,11 nM,730 nM,,,,,,,,
"O=C(NC1CCN(Cc2cccc(Cl)n2)CC1)C(O)(c1ccccc1)C1CCCC1 (stereo not shown) [Example 10, N-[1-(6-chloro-2-pyridylmethyl)piperidin-4-yl]-2-cyclopentyl-2-hydroxy-2-phenylacetamide]",7.6 nM,2.1,170,16 nM,1300 nM,,,,,,,,
"COc1ccnc(CN2CCC(NC(=O)C(O)(c3ccccc3)C3CCCC3)CC2)c1 (stereo not shown) [Example 9, N-[1-(4-methoxy-2-pyridylmethyl)piperidin-4-yl]-2-cyclopentyl-2-hydroxy-2-phenylacetamide]",9.4 nM,3.1,140,29 nM,1300 nM,,,,,,,,
"Cc1cccc(CN2CCC(NC(=O)[C@](O)(c3ccccc3)C3CCCC3)CC2)n1.Cl.Cl [Example 1, (2R)-N-[1-(6-methyl-2-pyridylmethyl)piperidin-4-yl]-2-cyclopentyl-2-hydroxy-2-phenylacetamide dihydrochloride]",2.9 nM,,,,1100 nM,4.4 nM,70 nM,3.6 nM,1100 nM,37 µg/kg,> 3000 µg/kg,,
CC(C)[N+]1(C)[C@@H]2CC[C@H]1C[C@@H](OC(=O)C(CO)c1ccccc1)C2 (stereo partly shown) [ipratropium],,,,,,,,,,1.5 µg/kg,1.8 µg/kg,potent activities in both cases,non-selective
CN1[C@@H]2CC[C@H]1C[C@@H](OC(=O)C(CO)c1ccccc1)C2 (stereo partly shown) [atropine],,,,,,,,,,4.3 µg/kg,3.7 µg/kg,potent activities in both cases,non-selective
